Laboratory results from patent publication US20090018111A1, “Novel Antimicrobial Medicament” (priority 2004, published 2009).
Like-named read-outs stand apart in the source and are kept apart here.

What was measured:
Assay in all cases: Sensitivity test (agar dilution)
[1] = tested on: S. aureus SP-7928 (homo-MRSA); assay type: cell-based, Staphylococcus aureus; details: Staphylococcus aureus, MRSA, read-out: MIC
How it was run: (§1)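 Strains were grown overnight at 37° C, brought to about 10^6 CFU/ml in gelatin-buffered saline, and ~5 μl inoculated onto MHA plates carrying two-fold dilution series of the test drug alone or in combination, following the Japan Chemotherapeutic Society agar dilution standard.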

[2] = tested on: S. aureus MS94088 (hetero-MRSA); assay type: cell-based, Staphylococcus aureus; details: Staphylococcus aureus, MRSA
How it was run: as §1

[3] = tested on: S. aureus 209P; assay type: cell-based, Staphylococcus aureus; details: Staphylococcus aureus, 209P, read-out: MIC
How it was run: as §1

[4] = tested on: P. aeruginosa IFO3451; assay type: cell-based, Pseudomonas aeruginosa; details: Pseudomonas aeruginosa, read-out: MIC
How it was run: as §1

[5] = tested on: S. marcescens X 100; assay type: cell-based, Serratia marcescens; details: Serratia marcescens, read-out: MIC
How it was run: as §1

[6] = tested on: S. marcescens GN6473; assay type: cell-based, Serratia marcescens; details: Serratia marcescens, read-out: MIC
How it was run: as §1

[7] = tested on: E. coli NIHJ JC-2; assay type: cell-based, Escherichia coli; details: Escherichia coli, read-out: MIC
How it was run: as §1

[8] = tested on: E. coli ML1410; assay type: cell-based, Escherichia coli; details: Escherichia coli, read-out: MIC
How it was run: as §1

[9] = tested on: P. vurgalis OX-19; assay type: cell-based, Proteus vulgaris; details: Proteus vulgaris, read-out: MIC
How it was run: as §1

[10] = tested on: P. vulgaris GN7919; assay type: cell-based, Proteus vulgaris; details: Proteus vulgaris, read-out: MIC
How it was run: as §1

[11] = tested on: E. cloacae GN7471; assay type: cell-based, Enterobacter cloacae; details: Enterobacter cloacae, read-out: MIC
How it was run: as §1

[12] = tested on: Str. pyogenes Cook; assay type: cell-based, Streptococcus pyogenes; details: Streptococcus pyogenes, read-out: MIC
How it was run: as §1

[13] = tested on: S. epidermidis IAM1296; assay type: cell-based, Staphylococcus epidermidis; details: Staphylococcus epidermidis, read-out: MIC
How it was run: as §1

[14] = Concomitant drug (MEPM:SM = 2:1)

Q: For C[C@@H](O)[C@H]1C(=O)N2C(C(=O)O)=C(S[C@@H]3CN[C@H](C(=O)N(C)C)C3)[C@H](C)[C@H]12 [MEPM, meropenem], which MIC ([1]; Concomitant (MEPM:SM = 1:1)) is on record?
A: Its MIC is 1 µg/mL.

Q: And the MIC ([1]; Concomitant (MEPM:SM = 1:2))?
A: Its MIC is 1 µg/mL.

Q: And the MIC ([1]; Concomitant (MEPM:SM = 1:4))?
A: The MIC was 0.5 µg/mL.

Q: And the MIC [1, 14]?
A: Its MIC is 2 µg/mL.

Q: And the MIC ([1]; alone)?
A: The MIC was 32 µg/mL.

Q: And the MIC [2]?
A: The MIC was 0.125 µg/mL.

Q: And the MIC ([2]; Concomitant (MEPM:SM = 1:1), read-out: MIC)?
A: The MIC was 0.25 µg/mL.

Q: And the MIC ([2]; Concomitant (MEPM:SM = 1:4), read-out: MIC)?
A: The MIC was 0.063 µg/mL.

Q: What about the MIC ([2]; Concomitant drug (MEPM:SM = 2:1), read-out: MIC) of the same compound?
A: The MIC was 0.5 µg/mL.

Q: And the MIC ([2]; alone, read-out: MIC)?
A: The MIC was 4 µg/mL.

Q: What about the MIC ([3]; Concomitant (MEPM:SM = 1:1)) of the same compound?
A: Its MIC is no more than 0.016 µg/mL.

Q: And the MIC ([3]; Concomitant (MEPM:SM = 1:2))?
A: The MIC was no more than 0.016 µg/mL.

Q: And the MIC ([3]; Concomitant (MEPM:SM = 1:4))?
A: Its MIC is no more than 0.016 µg/mL.

Q: And the MIC [3, 14]?
A: The MIC was no more than 0.016 µg/mL.

Q: And the MIC ([3]; alone)?
A: The MIC was 0.063 µg/mL.

Q: And the MIC ([4]; IFO3451, Concomitant (MEPM:SM = 1:1))?
A: The MIC was 0.5 µg/mL.

Q: And the MIC ([4]; IFO3451, Concomitant (MEPM:SM = 1:2))?
A: Its MIC is 0.5 µg/mL.

Q: What about the MIC ([4]; IFO3451, Concomitant (MEPM:SM = 1:4)) of the same compound?
A: Its MIC is 0.5 µg/mL.

Q: What about the MIC ([4]; IFO3451, Concomitant drug (MEPM:SM = 2:1)) of the same compound?
A: Its MIC is 0.5 µg/mL.

Q: And the MIC ([4]; IFO3451, alone)?
A: Its MIC is 0.5 µg/mL.

Q: And the MIC ([5]; X100, Concomitant (MEPM:SM = 1:1))?
A: Its MIC is no more than 0.016 µg/mL.

Q: What about the MIC ([5]; X100, Concomitant (MEPM:SM = 1:2)) of the same compound?
A: Its MIC is no more than 0.016 µg/mL.

Q: And the MIC ([5]; X100, Concomitant (MEPM:SM = 1:4))?
A: The MIC was no more than 0.016 µg/mL.

Q: And the MIC ([5]; X100, Concomitant drug (MEPM:SM = 2:1))?
A: The MIC was 0.031 µg/mL.

Q: What about the MIC ([5]; X100, alone) of the same compound?
A: The MIC was 0.031 µg/mL.

Q: What about the MIC ([6]; GN6473, Concomitant (MEPM:SM = 1:1)) of the same compound?
A: The MIC was 0.031 µg/mL.

Q: What about the MIC ([6]; GN6473, Concomitant (MEPM:SM = 1:2)) of the same compound?
A: The MIC was 0.031 µg/mL.

Q: And the MIC ([6]; GN6473, Concomitant (MEPM:SM = 1:4))?
A: Its MIC is 0.031 µg/mL.

Q: And the MIC ([6]; GN6473, Concomitant drug (MEPM:SM = 2:1))?
A: The MIC was 0.031 µg/mL.

Q: What about the MIC ([6]; GN6473, alone) of the same compound?
A: The MIC was 0.063 µg/mL.

Q: And the MIC ([7]; NIHJJC2, Concomitant (MEPM:SM = 1:1))?
A: The MIC was no more than 0.016 µg/mL.

Q: And the MIC ([7]; NIHJJC2, Concomitant (MEPM:SM = 1:2))?
A: The MIC was no more than 0.016 µg/mL.

Q: What about the MIC ([7]; NIHJJC2, Concomitant (MEPM:SM = 1:4)) of the same compound?
A: Its MIC is no more than 0.016 µg/mL.

Q: And the MIC ([7]; NIHJJC2, Concomitant drug (MEPM:SM = 2:1))?
A: Its MIC is no more than 0.016 µg/mL.

Q: What about the MIC ([7]; NIHJJC2, alone) of the same compound?
A: Its MIC is no more than 0.016 µg/mL.

Q: What about the MIC ([8]; ML1410, Concomitant (MEPM:SM = 1:1)) of the same compound?
A: Its MIC is no more than 0.016 µg/mL.

Q: What about the MIC ([8]; ML1410, Concomitant (MEPM:SM = 1:2)) of the same compound?
A: The MIC was no more than 0.016 µg/mL.

Q: What about the MIC ([8]; ML1410, Concomitant (MEPM:SM = 1:4)) of the same compound?
A: Its MIC is no more than 0.016 µg/mL.

Q: And the MIC ([8]; ML1410, Concomitant drug (MEPM:SM = 2:1))?
A: The MIC was no more than 0.016 µg/mL.

Q: And the MIC ([8]; ML1410, alone)?
A: Its MIC is 0.031 µg/mL.

Q: What about the MIC ([9]; OX19, Concomitant (MEPM:SM = 1:1)) of the same compound?
A: Its MIC is no more than 0.016 µg/mL.

Q: And the MIC ([9]; OX19, Concomitant (MEPM:SM = 1:2))?
A: The MIC was no more than 0.016 µg/mL.

Q: And the MIC ([9]; OX19, Concomitant (MEPM:SM = 1:4))?
A: Its MIC is no more than 0.016 µg/mL.

Q: And the MIC ([9]; OX19, Concomitant drug (MEPM:SM = 2:1))?
A: The MIC was 0.031 µg/mL.

Q: What about the MIC ([9]; OX19, alone) of the same compound?
A: The MIC was 0.063 µg/mL.

Q: What about the MIC ([10]; GN7919, Concomitant (MEPM:SM = 1:1)) of the same compound?
A: The MIC was 0.031 µg/mL.

Q: What about the MIC ([10]; GN7919, Concomitant (MEPM:SM = 1:2)) of the same compound?
A: The MIC was 0.031 µg/mL.

Q: What about the MIC ([10]; GN7919, Concomitant (MEPM:SM = 1:4)) of the same compound?
A: Its MIC is 0.031 µg/mL.

Q: What about the MIC ([10]; GN7919, Concomitant drug (MEPM:SM = 2:1)) of the same compound?
A: The MIC was 0.031 µg/mL.

Q: And the MIC ([10]; GN7919, alone)?
A: The MIC was 0.063 µg/mL.

Q: What about the MIC ([11]; GN7471, Concomitant (MEPM:SM = 1:1)) of the same compound?
A: The MIC was 0.031 µg/mL.

Q: And the MIC ([11]; GN7471, Concomitant (MEPM:SM = 1:2))?
A: Its MIC is 0.031 µg/mL.

Q: What about the MIC ([11]; GN7471, Concomitant (MEPM:SM = 1:4)) of the same compound?
A: The MIC was 0.031 µg/mL.

Q: And the MIC ([11]; GN7471, Concomitant drug (MEPM:SM = 2:1))?
A: Its MIC is 0.031 µg/mL.

Q: And the MIC ([11]; GN7471, alone)?
A: The MIC was 0.063 µg/mL.

Q: What about the MIC ([12]; Concomitant (MEPM:SM = 1:1)) of the same compound?
A: The MIC was no more than 0.016 µg/mL.

Q: And the MIC ([12]; Concomitant (MEPM:SM = 1:2))?
A: The MIC was no more than 0.016 µg/mL.

Q: And the MIC ([12]; Concomitant (MEPM:SM = 1:4))?
A: The MIC was no more than 0.016 µg/mL.

Q: What about the MIC [12, 14] of the same compound?
A: Its MIC is no more than 0.016 µg/mL.

Q: What about the MIC ([12]; alone) of the same compound?
A: The MIC was no more than 0.016 µg/mL.

Q: And the MIC ([13]; IAM1296, Concomitant (MEPM:SM = 1:1))?
A: Its MIC is no more than 0.016 µg/mL.

Q: And the MIC ([13]; IAM1296, Concomitant (MEPM:SM = 1:2))?
A: Its MIC is no more than 0.016 µg/mL.

Q: And the MIC ([13]; IAM1296, Concomitant (MEPM:SM = 1:4))?
A: Its MIC is no more than 0.016 µg/mL.

Q: What about the MIC ([13]; IAM1296, Concomitant drug (MEPM:SM = 2:1)) of the same compound?
A: Its MIC is 0.063 µg/mL.

Q: What about the MIC ([13]; IAM1296, alone) of the same compound?
A: The MIC was 1 µg/mL.
